Experimental data published in paper PMC4139355 (PLoS ONE, 2014).
Where two headings read alike, the source gives them in different places.

Assays:
LS174T cells = test: MTT cytotoxicity test in LS174T cells; conditions: for viability of LS174T cells (in words): MTT, 24 h, LAN up to 100 µM, OME up to 250 µM
Procedure: (§1) A stably transfected gene reporter cell line AZ-GR was used for assessment of GR transcriptional activity. A transiently transfected LS174T human colon adenocarcinoma cells were used for assessment of PXR transcriptional activity. […] The reporter plasmid was transiently transfected to LS174T cells by lipofection (FuGENE 6) with 300 ng/well of p3A4-luc reporter in 24-well plates. Cells were incubated for 24 h with tested compounds and/or vehicle (DMSO; 0.1% v/v), in the presence or absence of RIF (10 µM; LS174T cells) or DEX (100 nM; AZ-GR cells). After the treatments, cells were lysed and luciferase activity was measured. In parallel, cell viability was determined by conventional MTT test.
(§2) Gene reporter assays were performed in two different experimental layouts.
(§3) Treatments were performed in triplicates. Upper panels: MTT test was performed and absorbance was measured at 540 nm. The data are the mean from experiments from three consecutive passages of cells and are expressed as a percentage of viability of control cells. The values of IC50 were calculated and are indicated in a figure. […] The data are the mean from experiments from four consecutive passages of cells and are expressed as a percentage of maximal induction attained by RIF. […] The data are the mean from experiments from four consecutive passages of cells and are expressed as a fold induction of luciferase activity over control cells.

AZ-GR cells = test: MTT cytotoxicity test in AZ-GR cells
Procedure: as §1
as §3, with “Model activator of GR was dexamethasone (DEX; 0.1 µM). Treatments” for “Treatments”

[1] = molecular target: T1, glucocorticoid receptor GR (Homo sapiens, UniProt P04150); conditions: AZ-GR cells, 24 h, agonist mode
T1 sequence (P04150 1-777): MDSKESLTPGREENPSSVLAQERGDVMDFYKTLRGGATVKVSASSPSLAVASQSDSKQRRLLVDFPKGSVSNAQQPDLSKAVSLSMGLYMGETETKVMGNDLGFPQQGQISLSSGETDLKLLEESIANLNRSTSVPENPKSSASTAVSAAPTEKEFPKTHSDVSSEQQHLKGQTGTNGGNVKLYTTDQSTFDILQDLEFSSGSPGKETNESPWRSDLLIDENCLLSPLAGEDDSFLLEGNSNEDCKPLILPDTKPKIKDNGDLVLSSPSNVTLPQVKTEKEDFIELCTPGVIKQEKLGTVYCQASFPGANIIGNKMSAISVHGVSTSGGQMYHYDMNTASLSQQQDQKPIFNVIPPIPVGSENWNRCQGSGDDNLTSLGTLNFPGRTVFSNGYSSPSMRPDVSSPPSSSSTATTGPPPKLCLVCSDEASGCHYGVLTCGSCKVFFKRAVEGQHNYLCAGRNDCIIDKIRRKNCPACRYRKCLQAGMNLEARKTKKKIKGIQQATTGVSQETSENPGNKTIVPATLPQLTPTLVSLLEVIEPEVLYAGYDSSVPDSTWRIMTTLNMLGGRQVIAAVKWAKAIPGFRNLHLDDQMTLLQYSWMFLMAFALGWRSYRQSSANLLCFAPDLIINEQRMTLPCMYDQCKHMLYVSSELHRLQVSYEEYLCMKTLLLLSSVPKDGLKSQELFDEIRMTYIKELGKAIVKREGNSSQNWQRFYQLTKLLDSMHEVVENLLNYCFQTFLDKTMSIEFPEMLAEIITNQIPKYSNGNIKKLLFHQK
Procedure: as §1
as §3, with “Model activator of GR was dexamethasone (DEX; 0.1 µM). Treatments” for “Treatments”

[2] = system: CYP3A4 protein in HepG2 cells; test: CYP3A4 protein expression (Western blot) in HepG2 cells; conditions: 48 h
Procedure: Total protein extracts were prepared as described elsewhere. SDS–PAGE gels (10%) were run on a BioRad apparatus according to the general procedure followed by the protein transfer onto PVDF membrane. The membrane was saturated with 5% non-fat dried milk for 1 h at room temperature. […] Chemiluminescent detection was performed using horseradish peroxidase-conjugated secondary antibodies (Santa Cruz Biotechnology) and Western blotting Luminol kit (Santa Cruz Biotechnology). The density of bands was measured by densitometry.
Density of bands was quantified by densitometry.

[3] = system: CYP3A4-mediated luciferase activity in HepG2 cells; design: method as in PMID 12235278, PMID 20832446; conditions: HepG2 cells reporter gene assay; cited from earlier work
[4] = system: CYP3A4 mRNA in primary human hepatocytes; design: method as in PMID 12695340; conditions: 100 µM–200 µM OME; cited from earlier work
[5] = molecular target: T1, glucocorticoid receptor GR; test: GR gene reporter assay in AZ-GR cells, antagonist mode with dexamethasone; type: cell-based; conditions: in the presence of DEX 0.1 µM, 24 h, read-out: GR activation, antagonist mode IC50
Procedure: as §1
as §3, with “Model activator of GR was dexamethasone (DEX; 0.1 µM). Treatments” for “Treatments”

[6] = MTT cytotoxicity test in LS174T cells; conditions: human, LS174T cells
Procedure: as §1, §2, §3

[7] = MTT cytotoxicity test in AZ-GR cells; conditions: human, AZ-GR cells (stably transfected GR gene reporter cell line), cytotoxicity in AZ-GR cells IC50, MTT, 24 h
Procedure: as §1
as §3, with “Model activator of GR was dexamethasone (DEX; 0.1 µM). Treatments” for “Treatments”

pregnane X receptor PXR = molecular target: T2, pregnane X receptor PXR (Homo sapiens, UniProt O75469); test: PXR gene reporter assay (p3A4-luc in LS174T cells), agonist mode
T2 sequence (O75469 1-434): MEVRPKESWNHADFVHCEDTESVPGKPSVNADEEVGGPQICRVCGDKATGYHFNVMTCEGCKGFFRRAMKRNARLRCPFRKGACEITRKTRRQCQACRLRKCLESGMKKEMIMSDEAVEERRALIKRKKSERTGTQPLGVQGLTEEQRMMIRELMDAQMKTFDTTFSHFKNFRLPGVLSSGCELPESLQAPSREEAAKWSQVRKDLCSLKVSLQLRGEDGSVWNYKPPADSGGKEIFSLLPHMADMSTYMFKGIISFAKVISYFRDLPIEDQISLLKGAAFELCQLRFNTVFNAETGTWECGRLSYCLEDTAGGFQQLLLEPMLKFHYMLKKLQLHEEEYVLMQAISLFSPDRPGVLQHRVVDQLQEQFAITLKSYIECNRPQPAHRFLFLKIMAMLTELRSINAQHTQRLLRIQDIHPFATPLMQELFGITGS
Procedure: as §1, §2, §3

Cc1c(OCC(F)(F)F)ccnc1C[S+]([O-])c1nc2ccccc2[nH]1 (racemic) [rac-LAN, rac-lansoprazole]
IC50 (LS174T cells): > 100 µM | IC50 (AZ-GR cells): 200 ± 19.5 µM

COc1ccc2[nH]c([S+]([O-])Cc3ncc(C)c(OC)c3C)nc2c1 (racemic) [rac-OME, rac-omeprazole]
IC50 (LS174T cells): > 250 µM | IC50 (AZ-GR cells): > 250 µM

Cc1c(OCC(F)(F)F)ccnc1C[S+]([O-])c1nc2ccccc2[nH]1 (stereo not drawn) [LAN, lansoprazole]
effect on basal activity of GR (in words) [1]: weak effects on basal activity of GR | induction of CYP3A4 protein (in words) [2]: induced CYP3A4 protein | viability of LS174T cells (in words) (LS174T cells): did not observe significant decline in viability

COc1ccc2[nH]c([S+]([O-])Cc3ncc(C)c(OC)c3C)nc2c1 (stereo not drawn) [OME, omeprazole]
induction of CYP3A4-mediated luciferase activity (in words) [3]: showed an induction of CYP3A4-mediated luciferase activity | CYP3A4 mRNA expression induction [4]: 4 fold | viability of LS174T cells (in words) (LS174T cells): did not observe significant decline in viability

Cc1c(OCC(F)(F)F)ccnc1C[S@@+]([O-])c1nc2ccccc2[nH]1 [R-LAN, R-lansoprazole]
IC50 [5]: ~100 µM | IC50 at 24 h [6]: > 100 µM | IC50 at 24 h [7]: 184 ± 2.9 µM

COc1ccc2nc([S@+]([O-])Cc3ncc(C)c(OC)c3C)[nH]c2c1 [R-OME, R-omeprazole]
PXR activation, agonist mode (in words) (pregnane X receptor PXR; 24 h, LS174T cells with p3A4-luc): strongly activated PXR in concentrations 100 µM and 250 µM | EC50 (pregnane X receptor PXR; read-out: PXR activation, agonist mode EC50, 24 h, LS174T cells with p3A4-luc, absence of RIF): 25.3 ± 3.1 µM | IC50 (LS174T cells): > 250 µM | IC50 (AZ-GR cells): > 250 µM

Cc1c(OCC(F)(F)F)ccnc1C[S@+]([O-])c1nc2ccccc2[nH]1 [S-LAN, S-lansoprazole]
induction of CYP3A4 protein (in words) [2]: strongest effects | IC50 (LS174T cells): > 100 µM | IC50 (AZ-GR cells): 200 ± 6.5 µM

COc1ccc2nc([S@@+]([O-])Cc3ncc(C)c(OC)c3C)[nH]c2c1 [S-OME, S-omeprazole]
EC50 (pregnane X receptor PXR): 2 ± 0.6 µM | PXR activation, agonist mode (in words) (pregnane X receptor PXR; human, 24 h): activated PXR in concentrations 10 µM and 100 µM with drop of activation at 250 µM | IC50 at 24 h [6]: > 250 µM | IC50 at 24 h [7]: 214 µM
